Literature values as cited in patent publication US20210315250A1, “COMBINATION BROAD-SPECTRUM ANTIVIRAL NATURAL EXTRACT SUPPLEMENTS” (priority 2020, published 2021).

Columns and labels:
[1] = target: SARS-CoV 3CL (Severe acute respiratory syndrome coronavirus, UniProt P0C6X7)
[2] = tested on: HSV-1
[3] = target: ACE2 receptor (Homo sapiens, UniProt Q9BYF1)
[4] = target: viral S protein (Severe acute respiratory syndrome coronavirus 2, UniProt P0DTC2)
[5] = tested on: influenza
[6] = tested on: HIV
[7] = tested on: SVS
[8] = tested on: docking site for SARS-CoV-2

Sequence of ACE2 receptor (Q9BYF1 18-805): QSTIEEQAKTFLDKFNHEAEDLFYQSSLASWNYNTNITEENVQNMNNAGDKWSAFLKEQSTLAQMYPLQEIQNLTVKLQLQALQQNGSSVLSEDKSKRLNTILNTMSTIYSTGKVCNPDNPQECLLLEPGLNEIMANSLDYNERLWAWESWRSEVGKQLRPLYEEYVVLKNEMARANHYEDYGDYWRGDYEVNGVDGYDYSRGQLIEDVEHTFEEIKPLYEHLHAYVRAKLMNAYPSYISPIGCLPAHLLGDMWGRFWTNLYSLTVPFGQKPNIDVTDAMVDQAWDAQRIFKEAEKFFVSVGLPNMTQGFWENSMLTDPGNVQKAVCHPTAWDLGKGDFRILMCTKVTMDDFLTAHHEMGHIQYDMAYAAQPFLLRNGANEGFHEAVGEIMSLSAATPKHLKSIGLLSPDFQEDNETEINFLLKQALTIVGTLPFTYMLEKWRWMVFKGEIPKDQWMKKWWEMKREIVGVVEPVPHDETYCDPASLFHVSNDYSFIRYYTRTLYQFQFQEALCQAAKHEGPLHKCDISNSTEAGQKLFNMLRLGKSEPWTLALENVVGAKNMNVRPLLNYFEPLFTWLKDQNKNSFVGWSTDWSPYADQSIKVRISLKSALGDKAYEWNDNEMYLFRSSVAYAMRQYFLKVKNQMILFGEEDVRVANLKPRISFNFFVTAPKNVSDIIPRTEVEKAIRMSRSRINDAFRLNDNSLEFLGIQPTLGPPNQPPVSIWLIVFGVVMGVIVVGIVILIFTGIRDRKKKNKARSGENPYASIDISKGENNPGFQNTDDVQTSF

O=c1cc(-c2ccc(O)c(O)c2)oc2cc(O)cc(O)c12 [Luteolin]
inhibition of the docking site for SARS-CoV 3CL [1]: inhibit

O=c1c(O)c(-c2ccc(O)cc2)oc2c(O)c(O)cc(O)c12 [herbacetin]
binding to SARS-CoV 3CL [1]: bind

C/C=C/c1ccc(OC)cc1 [Trans-anethole]
inhibition of HSV-1 [2]: inhibit

COc1ccc(-c2cc(=O)c3c(O)c(OC)c(O[C@@H]4O[C@H](CO[C@@H]5O[C@@H](C)[C@H](O)[C@@H](O)[C@H]5O)[C@@H](O)[C@H](O)[C@H]4O)cc3o2)cc1 [pectolinarin]
binding to SARS-CoV 3CL [1]: bind

COc1cc(/C=C/C(=O)CC(=O)/C=C/c2ccc(O)c(OC)c2)ccc1O [Curcumin]
interaction with ACE2 receptor docking site [3]: interact
interaction with viral S protein docking site [4]: interact

O=C1OC[C@H](Cc2ccc3c(c2)OCO3)/C1=C\c1ccc2c(c1)OCO2 [Savinin]
inhibition of the docking site for SARS-CoV 3CL [1]: inhibit

C[C@@H]1O[C@@H](O[C@H]2[C@H](Oc3cc(O)c4c(=O)cc(-c5ccc(O)cc5)oc4c3)O[C@H](CO)[C@@H](O)[C@@H]2O)[C@H](O)[C@H](O)[C@H]1O [rhoifolin]
binding to SARS-CoV 3CL [1]: bind

caryophyllene
inhibition of HSV-1 [2]: inhibit

CC(=O)C=O [Methylglyoxal]
inhibition of viruses, in particular influenza [5]: inhibit

CCCCCCCCCCCCCC(=O)O [myristic acid]
inhibition of HIV [6]: inhibit
inhibition of SVS [7]: inhibit

O=c1c(O)c(-c2cc(O)c(O)c(O)c2)oc2cc(O)cc(O)c12 [Myricetin]
inhibition of the docking site for SARS-CoV-2 [8]: inhibit
